Article PMC1906830, “In vivo optical imaging of integrin αV-β3 in mice using multivalent or monovalent cRGD targeting vectors” (Molecular Cancer, 2007)

Legend:
[1] = system: HEK293(β1) cells (αVβ3-negative); assay: In vitro binding of Cy5-labeled peptides, confocal laser scanning microscopy; type: cell-based, human; conditions: 0.1 μM Cy5-labeled peptide, 30 min, 37°C, result in words
Protocol: (§1) Cells were seeded on sterilized 18-mm-diameter glass coverslips in 12-well plates (3 × 10^5 cells per well), and incubated overnight at 37°C. […] They were then washed with PBS, fixed with 2% paraformaldehyde at room temperature for 10 min. The nuclei were stained with 5 μM Hoechst 33342, and the coverslips were inverted onto glass slides using Mowiol (Calbiochem, San Diego, CA) mounting medium.

[2] = system: HEK293(β3) cells (high levels of αVβ3); assay: as above; type: cell-based, human; conditions: 0.1 μM Cy5-labeled peptide, 30 min, 37°C, result in words
Protocol: as §1

HEK293(β3) s.c. tumors [3] = assay: Histological distribution of RGD-peptides in excised tumors (CLSM); type: in vivo, Swiss nude mice; conditions: HEK293(β3) s.c. tumor excised 3 hr after 10 nmol i.v., cryosections
Protocol: Sections of 20–30 μm thickness were fixed with 2% paraformaldehyde at room temperature for 10 min. The nuclei were stained with 5 μM Hoechst 33342, and the coverslips were mounted using Mowiol and kept at 4°C in the dark until observation using CLSM.

HEK293(β3) s.c. tumors [4] = assay: Whole body in vivo optical imaging (fluorescence reflectance) of tumor-bearing mice; design: species or system Swiss nude mice

In the case of “Cy5-RAFT-c(-RGDfK-)4 (bicyclic or more) [Cy5-labeled tetramer: four c[-RGDfK-] grafted via oxime bond on RAFT cyclic decapeptide, Cy5 on the opposite side lysine]”, the “binding to HEK293(β1) cells (CLSM)” value [1] is reported as “none of these peptides bound”, the “binding to HEK293(β3) cells (CLSM)” value [2] is reported as “very strongly” and the “distribution / internalization in tumor cells of excised tumors (CLSM, words)” value (HEK293(β3) s.c. tumors [3]) is reported as “massively internalized by tumor cells”. The “tumor contrast (T/S ratio, tumor vs. skin)” value (HEK293(β3) s.c. tumors [4]; HEK293(β3) s.c. tumor, 10 nmol i.v., 4 hr p.i., mean ± SD, n = 3–4) was 15.9 ± 3.6, the “renal uptake” value (HEK293(β3) s.c. tumors [4]; i.v. injection, tumor-bearing or normal mice, not modified by excess of unlabeled tetramer or monomer) was “higher renal uptake than Cy5-cRGD” and the tumor/skin ratio (HEK293(β3) s.c. tumors [4]; intravenous injection, HEK293(β3) tumors, time not stated (abstract)) was “above 15”.
